Consider five compounds from patent publication US4283381A, “Triiodinated aminoacetamido isophthalamide x-ray contrast agents” (Schering Aktiengesellschaft, priority 1979, dated 1981).

Series [1] concerns Mouse (20 g). In words: LD50 mouse, intravenous injection. Type of series: in vivo. Conditions: solution 300 mg iodine/ml, injection rate 2 ml/min. The protocol:
(§1) LD50 on mice and rats was determined after intravenous injection of
(§2) the solutions containing 300 mg iodine/ml with an injection rate of 2

For series [2], the system named is Rat (100 g). Nature of the series: LD50 rat, intravenous injection. The note with it: solution 300 mg iodine/ml, injection rate 2 ml/min. Type of series: in vivo. On the procedure: as §1, §2
A short description of series [3]: Iodine content of salt. Type of series: physicochemical.
Series [4] can be described thus: Viscosity of solution with 300 mg iodine/ml, 37° C. In kind it is physicochemical.
A short description of series [5]: Molarity (and thus osmotic pressure) of solution with 300 mg iodine. In kind it is physicochemical. Conditions: 300 mg iodine/ml.

On to `NCC(=O)Nc1c(I)c(C(=O)NCCO)c(I)c(C(=O)NCCO)c1I` [A-Iothalamate, 5-aminoacetamido-2,4,6-triiodoisophthalic acid bis(2-hydroxyethyl)amide iothalamate], for which the “LD50 Mouse (20 g) g iodine/kg” value in series [1] was no less than 10.5 g iodine/kg. Further, the “LD50 Rat (100 g) g iodine/kg” value in series [2] is given as no less than 10 g iodine/kg. For the same compound, in series [3], the “Iodine content of salt” value is on record as 58%. In addition, in series [4], the “Viscosity of solution with 300 mg iodine/ml, 37° C. in centipoises” value (from here on “Viscosity of solution”) is on record as 2.4 centipoises. Moreover, in series [5], the “Molarity of solution with 300 mg iodine” value amounted to 0.394 mol/L.

Regarding `CN(CC(O)CO)C(=O)c1c(I)c(NC(=O)CN)c(I)c(C(=O)N(C)CC(O)CO)c1I` (centres unmarked) [B-Amidotrizoate, 5-amidoacetamido-2,4,6-isophthalic acid bis(N-methyl-2,3-dihydroxypropyl) diamide amidotrizoate], in series [2], the “LD50 Rat (100 g) g iodine/kg” value is no less than 10 g iodine/kg. In addition, the “Iodine content of salt” value in series [3] is recorded as 54%. For the same compound, the “Viscosity of solution” value in series [4] is reported as 3.5 centipoises. For the same compound, the “Molarity of solution with 300 mg iodine” value in series [5] is 0.394 mol/L.

Regarding `CC(=O)Nc1c(I)c(NC(C)=O)c(I)c(C(=O)O)c1I` [Megl. Amidotrizoate], the “LD50 Rat (100 g) g iodine/kg” value in series [2] amounted to 7.5 g iodine/kg. The “Iodine content of salt” value in series [3] is 47%. Also, the “Viscosity of solution” value in series [4] was 5.0 centipoises. For the same compound, the “Molarity of solution with 300 mg iodine” value in series [5] came out at 0.787 mol/L.

As to `CNC(=O)c1c(I)c(NC(C)=O)c(I)c(C(=O)O)c1I` [Megl. Iothalamate], the “LD50 Mouse (20 g) g iodine/kg” value in series [1] was found to be 4.5 g iodine/kg. In series [2], the “LD50 Rat (100 g) g iodine/kg” value was found to be 7.4 g iodine/kg. For the same compound, the “Iodine content of salt” value in series [3] is 47%. Also, in series [4], the “Viscosity of solution” value is 5.2 centipoises. In addition, the “Molarity of solution with 300 mg iodine” value in series [5] turned out to be 0.787 mol/L.

Take `CNC(=O)c1c(I)c(NC(C)=O)c(I)c(C(=O)O)c1I` [Na-Iothalamate]: the “LD50 Mouse (20 g) g iodine/kg” value in series [1] worked out at 8.0 g iodine/kg. Moreover, in series [2], the “LD50 Rat (100 g) g iodine/kg” value was 7.0 g iodine/kg. Further, the “Iodine content of salt” value in series [3] came out at 60%. Besides, in series [4], the “Viscosity of solution” value is reported as 2.7 centipoises. Also, the “Molarity of solution with 300 mg iodine” value in series [5] was determined as 0.787 mol/L.
